Laboratory results taken from US20230052424A1, “Peramivir Dry Powder Inhaler and Method of Preparing the Same” (GUANGZHOU NUCIEN PHARMACEUTICAL CO., LTD, priority 2020, published 2023).
Marks after values point to notes of the source that are not given here.

Tests used:
[1] = tested on: Influenza A/PR/8/34 virus; assay: Viral titer of mouse lung tissue (hemagglutination titer); format: in vivo, Balb/c mice; conditions: 10 mg/kg intragastric once per day, lung suspension, logarithmic value of maximum dilution factor
Description: 84 SPF Balb/c mice, half male and half female, weighing 21.2˜26.6 g each, were stochastically divided into 7 groups: a normal control group, a virus model group, an oseltamivir phosphate capsule group (Tamiflu) (10 mg/kg), a peramivir I.V. group (10 mg/kg), and peramivir dry powder inhaler (example 3) groups I-III (0.1, 0.3, 0.9 mg/kg), twelve mice in each group (in each group, F04˜F06 and M04˜M06 were subjected to 24 h hemagglutination titer measurement, and F01˜F03 and M1˜M03 were subjected to 48 h hemagglutination titer measurement). […] Prior to daily administration, the peramivir I.V. injection was prepared into a 1.0 mg/mL liquor with 0.9% sodium chloride injection, and the oseltamivir phosphate capsule was prepared into a 0.5 mg/mL liquor with pure water. The mice in each group were all administered at 2 h post-modeling of the intranasal virus infection, wherein the mice in each peramivir DPI group were administered with a corresponding dosage of peramivir dry powder inhaler, the mice in the peramivir intravenous injection group were intravenously injected with the peramivir liquid as per a dosage of 10 mL/kg, the oseltamivir phosphate capsule group were intragastrically administered with oseltamivir phosphate liquid as per a dosage of 20 mL/kg, and the normal control group and the model control group were sprayed with air of the same volume via their trachea. The mice were administered once per day, 2 days in succession.
6 mice, half male and half female, were stochastically selected from each group at 24 h and 48 h post-administration, respectively. The mice were euthanized by cervical dislocation and their lungs were procured through dissection and then put in a homogenizer. 0.9% sodium chloride injection was added according to a ratio of the lung weight (g) to 0.9% sodium chloride injection (mL)=1:9, followed by grinding the homogenates into mouse lung suspensions. The mouse lung suspensions were subjected to centrifugation at 2500 rpm for 20 min under a 4° C. environment, with the supernatant being acquired for future use. Except the first column, 50 μL PBS (Phosphate Buffer Saline) was added into hemagglutination plate wells. 100 μL to-be-tested supernatant was added into each well in the first column, respectively, followed by adding with serial dilution till the wells in the 11th column, and then 50 μL 0.5% chicken erythrocyte was added into each well, respectively, followed by setting for 40 min; the hemagglutination plate was then tilted to observe whether the erythrocyte flew in a teardrop shape. […]

[2] = tested on: Influenza A/PR/8/34 virus; assay: In vivo protection of mice infected with influenza virus (mortality, survival time); set-up: species or system Balb/c mice; conditions: 10 mg/kg intragastric, once per day 5 days from 2 h post-infection, 10 mice, 15 days observed
Description: 80 SPF Balb/c mice, half male and half female, weighing 16.9˜22.6 g each, were stochastically divided into 8 groups: a normal control group, a virus model group, an oseltamivir phosphate capsule group (Tamiflu) (10 mg/kg), a peramivir intravenous injection group (10 mg/kg), and peramivir dry powder inhaler (example 3) groups I-IV (0.1, 0.3, 0.9, 2.7 mg/kg), ten mice in each group. […] Prior to daily administration, the peramivir intravenous injection was prepared into a 1.0 mg/mL liquor with 0.9% sodium chloride injection, and the oseltamivir phosphate capsule was prepared into a 0.5 mg/mL liquor with pure water. The mice in each group were all administered at 2 h post-modeling of the intranasal virus infection, wherein the mice in each peramivir dry powder inhaler group were administered with a corresponding dosage of peramivir dry powder inhaler, the mice in the peramivir intravenous injection group were intravenously injected with the peramivir liquid as per a dosage of 10 mL/kg, the oseltamivir phosphate capsule group were intragastrically administered with oseltamivir phosphate liquid as per a dosage of 20 mL/kg, and the normal control group and the model control group were sprayed with air of the same volume via their trachea. The mice were administered once per day, 5 days in succession. The first day (D1) of virus infection was counted from the next day of the intranasal virus inflection modeling.

[3] = listed as oseltamivir phosphate

## CCOC(=O)C1=C[C@@H](OC(CC)CC)[C@H](NC(C)=O)[C@@H](N)C1 [Oseltamivir phosphate]
[1]; 24 h, n = 6
  hemagglutination titer: 2.5 ± 0.5
[1]; 24 h, n = 6, listed as oseltamivir phosphate
  hemagglutination titer: notably decreased
[1]; 48 h, n = 6
  hemagglutination titer: 2.2 ± 0.8
[1]; 48 h, n = 6, listed as oseltamivir phosphate
  hemagglutination titer: notably decreased
[2]
  Average number of survival days: 11.3 ± 4.8 days
  Mortality rate (%): 40** %
  Number of deaths: 4
  Number of survivals: 6
[2]; [3]
  Average number of survival days: significantly prolonged
  Mortality rate (%): significantly decreased
